These results are taken from patent US12234228B2, “Nitric oxide donor and anti-oxidant compounds” (University of North Texas Health Science Center, priority 2018, dated 2025).

SMILES strings stand for the structures.

The subject of the assay is ischemic hindlimb mice. Briefly: hind limb ischemia (PAD) model: blood perfusion and treadmill. In kind it is in vivo, mouse. An excerpt:
Parameters: Incline 30 degrees; max endurance test at […]; stimulation: 1.5 mA. Stimulation and distance count were stopped when a mouse met one of the following conditions: 1) total stimulation time 30 seconds; or 2) single stimulation time is more than 10 seconds.
Animal model. Since PAD happens commonly in old people, the inventor used old mice for ischemic hindlimb animal models. To this, male and female Balb/c mice at age of 30-40 weeks old were chosen for these in vivo studies. Animals were housed in individual cage at normal diet before performing ligation. In brief, animals were anesthetized with 2% isoflurane, and prior to incision, analgesic SR Buprenorphine was injected subcutaneously (at dose of 1 mg/kg for mice). Upon opening the incision on animals left legs, the membrane covering the inguinal fat tissue was carefully separated to expose the neurovascular bundle underneath and veins and nerves were then carefully separated from arteries. Next, three pair of 1 mm-distal ties (using 6-0 or 7-0 nonabsorbable suture) followed by transection (by spring scissor) were made on femoral artery, proximal caudal femoral artery and superficial caudal epigastric artery. Finally, the incision was closed by absorbable 5-0 or 6-0 sutures. The animal model appeared limping similar to literature report^37 from the time post-treatment until endpoint study.
Therapeutic groups of study and sample size. After 3 days of ligation, mice were randomly assigned into 4 groups: Sham, free SA-10, SA-10 NPs and blank PLGA NPs. Sham groups were injected with saline without any therapeutic treatment. Based on study of biodistribution, the route of administration was intramuscular (IM) injection. To determine sample size, a power of analysis was processed on SigmaPlot v.13 software. Significant difference would be considered when P<0.05. Based on the inventor's own experience and literature reports, the inventor selected power with α<0.05 as 0.8. Calculation yielded sample size as n=5.
In vivo blood perfusion and physical test. Animals under treatments were measured for their recovery physiologically and physically. In the former study, animals were anesthetized with 1.5-2% isoflurane, and blood perfusion was measured with Laser Speckle Contrast Imaging (PeriCam PSI NR, Perimed AB). Briefly, hemoglobin in shallow vessels and capillaries responded to exciting lasers in term of color pigments. The relative blood perfusion was calculated by device software (PIMSoft), and it correlated to typical pigments. […]
When the animal was not running for total of 30 seconds under stimulation, the run of animals was terminated from recording. Physical recovery of animals was then quantified as covered distance until exhaustion, which was obtained from the treadmill software.

`Nc1c[n+](C2CCS(=O)(=O)CC2)no1` [SA-10]: under “0.125 mg/kg drug, IM, ischemic versus normal limb”, the blood perfusion indexes result was “performed better than sham and blank vehicle at the beginning”. In addition, the endurance run result (0.125 mg/kg drug, IM, treadmill distance until exhaustion) was “performed better than sham and blank vehicle at the beginning”. For the same compound, the “recovery in treadmill experiment” value (IM injection, day 0 and day 7, vs. sham and VEGF) is listed as “good recovery effects”. For the same compound, the “new blood vessel formation and blood circulation” value (mouse leg after artery occlusion, assessed by treadmill) is “increase new blood vessel formation and blood circulation”.
